Activity calls are given as the source filed them. No cut-off for these calls is given here.
Target: Mitogen-activated protein kinase 9 (Homo sapiens) (UniProt P45984)
Experiment: Inhibition of JNK2 in hTERT-immortalized human HCA2 cells assessed as c-jun phosphorylation upto 50 uM by ELISA in presence of anisomycin
Assay type: cell-based

Chain of Mitogen-activated protein kinase 9 (Homo sapiens) (P45984 whole entry, looked up): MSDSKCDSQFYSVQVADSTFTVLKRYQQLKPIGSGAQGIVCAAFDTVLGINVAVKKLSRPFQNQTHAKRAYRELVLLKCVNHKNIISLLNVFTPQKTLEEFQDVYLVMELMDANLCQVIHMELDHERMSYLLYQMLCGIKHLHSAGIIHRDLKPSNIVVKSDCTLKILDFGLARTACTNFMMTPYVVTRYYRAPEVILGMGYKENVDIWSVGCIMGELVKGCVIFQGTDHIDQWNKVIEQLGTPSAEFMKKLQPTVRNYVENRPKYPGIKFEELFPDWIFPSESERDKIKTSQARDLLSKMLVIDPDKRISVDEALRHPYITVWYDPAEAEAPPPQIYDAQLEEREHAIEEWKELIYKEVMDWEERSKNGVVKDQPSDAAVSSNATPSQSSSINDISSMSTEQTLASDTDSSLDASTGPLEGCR

Structure (SMILES): Nc1c(C(=O)c2cccc(OC[C@@H](O)CO)c2)cnn1-c1ccc(F)cc1
- Activity: inactive
